Results on one compound are retold here after patent publication US20190106721A1, “Method for the fermentative production of L-amino acids” (priority 2017, published 2019).

In brackets after ≈: the same amount, converted by molar mass.

Assay in all cases: Minimal inhibitory concentration test (MIC-Test) of lincomycin, serial dilution in liquid culture
Experiment [1] concerns DM1933_ΔlmrB::EcoRV/pVWEx1_lmrB^DM1547. The format is cell-based. Particulars: Corynebacterium glutamicum, 20 h. As to the method:
(§1) For this purpose a first well of a microliter plate was filled with 360 μl of BHI medium supplemented with 0.3 mM IPTG and 250 μg/ml lincomycin-hydrochloride. A volume of 180 μl was removed and placed into a second well previously filled with 180 μl BHI medium supplemented with 0.3 mM IPTG. Thus a second well containing BHI medium supplemented with 0.3 mM IPTG and 125 μg/ml lincomycin-hydrochloride was prepared. From said second well 180 ∞l were removed and placed into a third well previously filled with 180 μl BHI medium supplemented with 0.3 mM IPTG. These dilution steps were repeated several times to cover the concentration range mentioned above. Thus wells containing 180 μl of the respective test medium were obtained. A control medium without lincomycin-hydrochloride was included in the test procedure.
A preculture of the strain to be tested was made in BHI medium (as described under cultivation) supplemented with 250 μg/ml kanamycin in case of plasmid containing strains). The preculture was centrifuged and the cell pellet resuspended in 0.9% (w/v) NaCl solution to give an OD660 of 1.0. […] After 20 h the optical densities were measured. […]
(§2) The MIC's of lincomycin for strains DM1933_ΔlmrB::EcoRV/pVWEx1 and DM1933_ΔlmrB::EcoRV/pVWEx1_lmrB^DM1547 constructed in examples 8 and 11 were determined as described in materials and methods.

The subject of experiment [2] is DM1933_ΔlmrB::EcoRV/pVWEx1. The format is cell-based, Corynebacterium glutamicum. As to conditions: 20 h. As for the experimental part:
as §1, with “A control medium without lincomycin-hydrochloride was included in the test procedure.” left out
A preculture of the strain to be tested was made in BHI medium (as described under cultivation) supplemented with 250 μg/ml kanamycin in case of plasmid containing strains). […] After 20 h the optical densities were measured. […]
(§3) The MIC's of lincomycin for strains ATCC13032/pVWEx1; ATCC13032/pVWEx1_lmrB^ATCC14067; DM1933_ΔlmrB::EcoRV/pVWEx1 and DM1933_ΔlmrB::EcoRV/pVWEx1_lmrB^ATCC14067 constructed in example 8 were determined as described in materials and methods.
as §2

In experiment [3] the test system is DM1933_ΔlmrB::EcoRV/pVWEx1_lmrB^ATCC14067. The experiment is classed as cell-based. Particulars: Corynebacterium glutamicum, ATCC14067, 20 h. As for the experimental part: as §1
(§4) A preculture of the strain to be tested was made in BHI medium (as described under cultivation) supplemented with 250 μg/ml kanamycin in case of plasmid containing strains). The preculture was centrifuged and the cell pellet resuspended in 0.9% (w/v) NaCl solution to give an OD660 of 1.0. A volume of 20 μl of the suspension was used to inoculate the test medium contained in the wells. The micro titer plate was incubated at 300 rpm and 33° C. in an Infors HT Multitron standard incubator shaker from Infors GmbH (Bottmingen, Switzerland). After 20 h the optical densities were measured. The test medium having the lowest concentration of lincomycin-hydrochloride preventing growth of the culture is given as MIC.
as §3

Experiment [4] deals with ATCC13032/pVWEx1_lmrB^ATCC14067. The experiment is classed as cell-based. As to conditions: Corynebacterium glutamicum, 20 h. As to the method: as §1, §4, §3
A further experiment has as its system ATCC13032/pVWEx1. The experiment is classed as cell-based. As to conditions: Corynebacterium glutamicum; strain ATCC13032/pVWEx1; as lincomycin-hydrochloride; BHI medium with 0.3 mM IPTG, 20 h, 33° C. As for the experimental part:
as §1, §4, §3

The term MIC denotes the smallest concentration in the dilution series that meets the test's criterion for growth inhibition. For `CCC[C@@H]1C[C@@H](C(=O)N[C@@H]([C@H]2O[C@H](SC)[C@H](O)[C@@H](O)[C@H]2O)[C@@H](C)O)N(C)C1` [lincomycin, Lincomycin], the MIC amounted to 62.5 µg/mL (≈ 154 µM) in experiment [1]; 7.8 µg/mL (≈ 19.2 µM) in experiment [2] (Corynebacterium glutamicum); 7.8 µg/mL (≈ 19.2 µM) in experiment [2] (strain DM1933_DlmrB/pVWEx1 (Table 25), as lincomycin-hydrochloride, BHI medium with 0.3 mM IPTG, 33° C.); 62.5 µg/mL (≈ 154 µM) in experiment [3]; 125 µg/mL (≈ 307 µM) in experiment [4]; 15.6 µg/mL (≈ 38.4 µM) in the experiment with ATCC13032/pVWEx1.
